These results are taken from PubChem BioAssay (NCI).

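Results reflect a 48-hour exposure of cells in 96-well plates to compound at five concentrations. Abbreviation: GI50, concentration required for 50% inhibition of growth. At the TGI there is no net growth.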

Assay in all cases: growth of human tumour cells (NCI), 48 h
Experiment [1] relates to EKVX NSCLC.
In experiment [2] the test system is HL-60(TB) leukemia.
Experiment [3] deals with HOP-62 NSCLC.
In experiment [4] the test system is HT29 colon.
The subject of experiment [5] is MOLT-4 leukemia.
For experiment [6], the system named is NCI-H522 lung.
For experiment [7], the system named is SK-MEL-5 melanoma.
Experiment [8] deals with SK-OV-3 ovarian.
Experiment [9] concerns SN12C renal.
The subject of experiment [10] is SW-620 colon.

On to `CC1(C)N=C(N)N=C(N)N1c1ccc(CCCCc2ccc(S(=O)(=O)F)cc2Cl)c(Cl)c1`, for which the TGI stood at 161 µM in [1]; 11.6 µM in experiment [2]; 47.2 µM in experiment [3]; 298 µM in experiment [4]; 10.6 µM in experiment [5]; 31.4 µM in [6]. The TGI in experiment [7] turned out to be 31.7 µM; in [8], 351 µM; in [9], 90.3 µM; in experiment [10], 360 µM.
On to `C1CN2N3CCCC23C1` (centres undefined), for which the TGI in experiment [1], in experiment [2], in experiment [3], in experiment [4], in [5] and in experiment [6] was greater than 100 µM each time. The TGI in experiment [7], in [8], in experiment [9] and in experiment [10] was greater than 100 µM each time.
Turning to `CCN1CCN(c2nc(NCCNc3ccnc4cc(Cl)ccc34)c3ccccc3n2)CC1`, the GI50 in [1] is 2.62 µM; in experiment [2], 2.01 µM; in [3], 1.95 µM; in experiment [4] it was 0.793 µM; in [5], 2.13 µM; in experiment [6], 2.14 µM. The GI50 in [7] was 1.82 µM; in experiment [8], 2.13 µM; in experiment [9], 1.21 µM; in experiment [10], 0.707 µM. Also, the TGI came out at 11.6 µM in experiment [1]; 4.01 µM in [2]; 6.43 µM in experiment [3]; 7.47 µM in experiment [4]; 7.17 µM in [5]; 4.54 µM in [6]. Moreover, the TGI in experiment [7] amounted to 3.21 µM; in experiment [8] it was 4.71 µM; in experiment [9], 2.88 µM; in experiment [10] it was 5.14 µM.
Take `O=C(/C=C(\[O-])c1ccccc1)CCCCCCC(=O)/C=C(\[O-])c1ccccc1.O=C(/C=C(\[O-])c1ccccc1)CCCCCCC(=O)/C=C(\[O-])c1ccccc1.O=C(/C=C(\[O-])c1ccccc1)CCCCCCC(=O)/C=C(\[O-])c1ccccc1.[La+3].[La+3]`: the GI50 in experiment [1], in [2], in experiment [3], in [4], in experiment [5] and in experiment [6] was greater than 50 µM in each case. The GI50 in [7], in [8], in experiment [9] and in [10] was greater than 50 µM throughout. Also, the TGI in experiment [1], in [2], in experiment [3], in [4], in experiment [5] and in experiment [6] was greater than 50 µM each time. In addition, the TGI in [7], in [8], in experiment [9] and in experiment [10] was greater than 50 µM each time.
Take `CCCNC(=O)OCc1c(COC(=O)NCCC)c(-c2ccc(Cl)c(Cl)c2)n2c1CCC2`: the TGI in experiment [1] is 30.2 µM; in [2], 7.7 µM; in experiment [3] it was 22.3 µM; in experiment [4] it was 19.2 µM; in experiment [5], 87.7 µM; in [6], 4.32 µM. The TGI was found to be 19.5 µM in experiment [7], 10.5 µM in experiment [8], 19.4 µM in experiment [9] and 20.6 µM in [10].
Turning to `O=C1Oc2cc3c(c4cccc1c24)OCN(c1ccc(Cl)cc1)C3`, the TGI in [1] was greater than 100 µM; in experiment [2], greater than 55.5 µM; in experiment [3] it was greater than 100 µM; in experiment [4], greater than 100 µM; in experiment [5], 51.4 µM; in experiment [6], 30.8 µM. Also, the TGI is greater than 100 µM in [7], greater than 100 µM in experiment [8], 29.1 µM in [9] and greater than 55.3 µM in [10].
Take `NNC(=O)c1cnn(-c2ccnc3c(C(F)(F)F)cccc23)c1N`: the GI50 in experiment [1], in experiment [2], in experiment [3], in experiment [4], in experiment [5] and in experiment [6] was greater than 100 µM each time. Moreover, the GI50 in experiment [7], in experiment [8], in experiment [9] and in [10] was greater than 100 µM each time. The TGI in [1], in experiment [2], in [3], in experiment [4], in experiment [5] and in experiment [6] was greater than 100 µM throughout. Further, the TGI in experiment [7], in experiment [8], in [9] and in [10] was greater than 100 µM each time.
For the compound `O=[n+]1c(CBr)c(CBr)n([O-])c2ccccc21`, the GI50 is 15.3 µM in [1]; 2.26 µM in [2]; 17.8 µM in [3]; 1.91 µM in experiment [4]; 3.62 µM in experiment [5]; 1.74 µM in experiment [6]. The GI50 in experiment [7] was 15.9 µM; in [8], 24.9 µM; in experiment [9] it was 11 µM; in [10], 1.86 µM. Further, the TGI came out at 29 µM in [1]; 5.8 µM in experiment [2]; 37.5 µM in experiment [3]; 3.49 µM in [4]; 14.7 µM in experiment [5]; 3.17 µM in [6]. The TGI is 29.5 µM in [7], greater than 100 µM in experiment [8], 24.3 µM in [9] and 3.69 µM in [10].
Regarding `CN(C)CCNc1nc2ccccc2c2[nH]c3ccccc3c12`, the GI50 in experiment [1] is 1.7 µM; in experiment [2], 1.55 µM; in experiment [3] it was 0.203 µM; in experiment [4] it was 0.188 µM; in experiment [5] it was 0.571 µM; in experiment [6] it was 1.33 µM. Moreover, the GI50 in experiment [7] was 1.61 µM; in [8], 1.72 µM; in experiment [9], 0.693 µM; in [10] it was 0.764 µM. In addition, the TGI was 14.3 µM in experiment [1]; 3.77 µM in experiment [2]; 1.8 µM in experiment [3]; greater than 77.1 µM in experiment [4]; 2.37 µM in experiment [5]; 3.94 µM in [7]. The TGI in experiment [8] came out at 13.9 µM; in experiment [9], 2.82 µM; in [10] it was 19.7 µM.
Take `O=S(=O)(O)C(O)/C=C/c1ccccc1` (centres undefined): the TGI in experiment [1], in experiment [2], in experiment [3], in experiment [4], in experiment [5] and in experiment [6] was greater than 100 µM in each case. For the same compound, the TGI in experiment [7], in experiment [8], in experiment [9] and in experiment [10] was greater than 100 µM each time.
For `Cn1c(-c2nonc2N)nc2cnccc21`, the GI50 in experiment [1] was 16.5 µM; in experiment [2], greater than 25 µM; in [3], greater than 25 µM; in experiment [4], greater than 25 µM; in [5] it was greater than 25 µM; in experiment [6], greater than 25 µM. Moreover, the GI50 in experiment [7], in [8], in [9] and in experiment [10] was greater than 25 µM throughout. For the same compound, the TGI in experiment [1], in experiment [2], in [3], in experiment [4], in [5] and in [6] was greater than 25 µM in each case. In addition, the TGI in experiment [7], in experiment [8], in experiment [9] and in experiment [10] was greater than 25 µM throughout.
For the compound `CN(C)c1ccc(/C=C2\C[N+](C)(C)C/C(=C\c3ccc(N(C)C)cc3)C2=O)cc1`, the TGI in [1] is greater than 100 µM; in experiment [2], 13.1 µM; in experiment [3], greater than 96.7 µM; in experiment [4], 24 µM; in [5], 59.3 µM; in experiment [6], 26.2 µM. Besides, the TGI was 23.6 µM in [7], 73.1 µM in experiment [8], greater than 78 µM in experiment [9] and 43.2 µM in experiment [10].
Consider `NC1(CCCCCCCCCCC(=O)O)CNCCNCCNCCNC1`, for which the TGI in experiment [1] was greater than 100 µM; in [2], 47.5 µM; in [3] it was 91.6 µM; in experiment [4], greater than 100 µM; in experiment [5], greater than 100 µM; in experiment [6], greater than 100 µM. Also, the TGI in experiment [7], in experiment [8], in experiment [9] and in experiment [10] was greater than 100 µM throughout.
In the case of `CC[n+]1ccc2c(c1)C(=O)c1nccc3c1c-2nc1ccccc13`, the GI50 in [1] is 3.53 µM; in [2] it was 5.79 µM; in [3], 0.0618 µM; in [4] it was 4.15 µM; in experiment [5] it was 1.27 µM; in experiment [6], 0.538 µM. Also, the GI50 in experiment [7] was 1.35 µM; in experiment [8] it was 0.799 µM; in experiment [9] it was 0.142 µM; in experiment [10], 1.1 µM. The TGI in experiment [1] was found to be 8.92 µM; in experiment [2], 16.9 µM; in experiment [3], 1.19 µM; in experiment [4], 23.1 µM; in experiment [5], 7.31 µM; in [6], 1.45 µM. Besides, the TGI in experiment [7] was found to be 5.54 µM; in experiment [8], 4.83 µM; in experiment [9], 0.66 µM; in experiment [10], 11.5 µM.
On to `O=C(O)c1cc(S(=O)(=O)N=NC=C2c3ccccc3N(O)c3ccccc32)ccc1O`, for which the TGI in experiment [1] was greater than 100 µM; in experiment [2] it was 23.7 µM; in [3] it was 37.5 µM; in [4], greater than 100 µM; in experiment [5] it was 45.1 µM; in [6] it was 23.8 µM. For the same compound, the TGI was 32.3 µM in experiment [7], 92.2 µM in experiment [8], greater than 100 µM in [9] and greater than 100 µM in experiment [10].
Regarding `O=C1NC(=O)C2C(=O)NC(=O)C1C2(c1ccccc1)c1ccc(Cl)cc1` (centres undefined), the TGI in [1], in [2], in experiment [3], in [4], in experiment [5] and in [6] was greater than 100 µM throughout. Moreover, the TGI in experiment [7], in experiment [8], in [9] and in experiment [10] was greater than 100 µM each time.
For the compound `CC1=C[C@@H]2Cc3occc3C(C)(C)[C@@H]2CC1`, the TGI in [1] was determined as 33 µM; in [2], 39.1 µM; in experiment [3], 92.2 µM; in experiment [4] it was 30.3 µM; in experiment [5], 39.4 µM; in experiment [6], 28.6 µM. Also, the TGI is 33.1 µM in experiment [7], greater than 100 µM in [8], 29.8 µM in experiment [9] and 31.8 µM in experiment [10].
Take `OC(c1cccc(C(F)(F)F)c1)c1cnccc1NC1CCCCCC1` (centres undefined): the GI50 in experiment [1] was 1.98 µM; in [2], 2.13 µM; in experiment [3], 1.89 µM; in experiment [4] it was 1.78 µM; in [5] it was 2.3 µM; in experiment [6], 1.65 µM. Further, the GI50 in experiment [7] is 1.61 µM; in [8] it was 7 µM; in [9], 1.87 µM; in experiment [10] it was 1.72 µM. For the same compound, the TGI in experiment [1] stood at 4.68 µM; in experiment [2] it was 4.47 µM; in [3] it was 3.63 µM; in [4] it was 3.72 µM; in experiment [5], 6.19 µM; in [6], 3.56 µM. For the same compound, the TGI in experiment [7] was determined as 3.04 µM; in [8], 20 µM; in experiment [9], 4.08 µM; in [10], 3.37 µM.
On to `Fc1ccc(-c2nn(-c3ccccc3)cc2-c2nc3ccccc3o2)cc1`, for which the GI50 is 5.29 µM in experiment [1]; 3.29 µM in [2]; 4.95 µM in [3]; 9.46 µM in [4]; 3.62 µM in experiment [5]; 3.62 µM in [6]. Besides, the GI50 was 5.72 µM in experiment [7], 8.46 µM in experiment [8], 6.15 µM in experiment [9] and 3.12 µM in experiment [10]. Also, the TGI was 90.6 µM in experiment [1]; 9.26 µM in experiment [2]; 33.4 µM in [3]; 30.4 µM in experiment [4]; greater than 100 µM in experiment [5]; 16.8 µM in experiment [6]. For the same compound, the TGI was 19.3 µM in [7], greater than 100 µM in experiment [8], 33.5 µM in experiment [9] and 36.4 µM in [10].
